Laboratory results reported in ChEMBL document CHEMBL4043271, “Synthesis, computational studies and enzyme inhibitory kinetics of substituted methyl[2-(4-dimethylamino-benzylidene)-hydrazono)-4-oxo-thiazolidin-5-ylidene]acetates as mushroom tyrosinase inhibitors” (Bioorg Med Chem, 2017).
Activity calls are given as the source filed them. The calls are words filed in the database; no cut-off is given here.

How the values were obtained:
[1] = biological target: T1, Mushroom tyrosinase (Agaricus bisporus, UniProt O42713+Q00024+C7FF04+C7FF05); assay: Inhibition of mushroom tyrosinase using L-DOPA as substrate preincubated for 10 mins followed by substrate addition measured after 20 mins
[2] = biological target: T1, Mushroom tyrosinase; assay: Non-competitive inhibition of mushroom tyrosinase at 1.06 to 17 uM preincubated for 10 mins followed by addition of varying concentration of substrate L-DOPA measured after 20 mins by Lineweaver-Burk plot analysis
[3] = biological target: Mushroom tyrosinase (Agaricus bisporus) (UniProt O42713+Q00024+C7FF04+C7FF05); assay: Non-competitive inhibition of mushroom tyrosinase at 1.06 to 34 uM preincubated for 10 mins followed by addition of varying concentration of substrate L-DOPA measured after 20 mins by Dixon plot analysis
[4] = test system: COC(=O)/C=C1\S/C(=N/N=C/c2ccncc2)NC1=O; assay: Non-competitive inhibition of mushroom tyrosinase assessed as Vmax of substrate at 8.50 uM preincubated for 10 mins followed by addition of varying concentration of substrate L-DOPA measured every 30 secs up to 5 mins by Lineweaver-Burk plot analysis (reference value: […] deltaA/s); settings: Agaricus bisporus
[5] = test system: COC(=O)/C=C1\S/C(=N/N=C/c2ccncc2)NC1=O; assay: Non-competitive inhibition of mushroom tyrosinase assessed as substrate Km at 1.06 to 17 uM preincubated for 10 mins followed by addition of varying concentration of substrate L-DOPA measured after 20 mins by Lineweaver-Burk plot analysis (reference value: […] mM); settings: Agaricus bisporus
[6] = test system: COC(=O)/C=C1\S/C(=N/N=C/c2ccncc2)NC1=O; assay: Non-competitive inhibition of mushroom tyrosinase assessed as Vmax of substrate at 17 uM preincubated for 10 mins followed by addition of varying concentration of substrate L-DOPA measured every 30 secs up to 5 mins by Lineweaver-Burk plot analysis (reference value: […] deltaA/s); settings: Agaricus bisporus
[7] = test system: COC(=O)/C=C1\S/C(=N/N=C/c2ccncc2)NC1=O; assay: Non-competitive inhibition of mushroom tyrosinase assessed as Vmax of substrate at 1.06 uM preincubated for 10 mins followed by addition of varying concentration of substrate L-DOPA measured every 30 secs up to 5 mins by Lineweaver-Burk plot analysis (reference value: […] deltaA/s); settings: Agaricus bisporus

Mushroom tyrosinase (Agaricus bisporus) (from UniProt O42713+Q00024+C7FF04+C7FF05), sequence (C7FF05 whole entry, looked up): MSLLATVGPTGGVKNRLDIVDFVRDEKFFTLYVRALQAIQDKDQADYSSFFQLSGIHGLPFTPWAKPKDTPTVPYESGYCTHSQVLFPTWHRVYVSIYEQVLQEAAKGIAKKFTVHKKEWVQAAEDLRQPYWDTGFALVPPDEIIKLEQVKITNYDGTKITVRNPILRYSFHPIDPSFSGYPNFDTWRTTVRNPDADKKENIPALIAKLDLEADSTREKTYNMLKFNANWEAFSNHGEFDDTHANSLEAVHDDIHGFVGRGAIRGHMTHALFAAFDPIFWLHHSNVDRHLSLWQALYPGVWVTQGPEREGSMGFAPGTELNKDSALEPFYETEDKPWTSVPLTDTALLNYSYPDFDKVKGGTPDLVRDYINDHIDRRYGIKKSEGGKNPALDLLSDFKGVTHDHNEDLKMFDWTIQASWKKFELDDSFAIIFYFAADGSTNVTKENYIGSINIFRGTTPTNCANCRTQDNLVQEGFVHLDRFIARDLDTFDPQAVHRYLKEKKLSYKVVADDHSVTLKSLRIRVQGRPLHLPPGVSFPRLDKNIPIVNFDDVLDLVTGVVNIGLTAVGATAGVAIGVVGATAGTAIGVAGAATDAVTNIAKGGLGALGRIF
Mushroom tyrosinase (Agaricus bisporus) (from UniProt O42713+Q00024+C7FF04+C7FF05), sequence (C7FF04 whole entry, looked up): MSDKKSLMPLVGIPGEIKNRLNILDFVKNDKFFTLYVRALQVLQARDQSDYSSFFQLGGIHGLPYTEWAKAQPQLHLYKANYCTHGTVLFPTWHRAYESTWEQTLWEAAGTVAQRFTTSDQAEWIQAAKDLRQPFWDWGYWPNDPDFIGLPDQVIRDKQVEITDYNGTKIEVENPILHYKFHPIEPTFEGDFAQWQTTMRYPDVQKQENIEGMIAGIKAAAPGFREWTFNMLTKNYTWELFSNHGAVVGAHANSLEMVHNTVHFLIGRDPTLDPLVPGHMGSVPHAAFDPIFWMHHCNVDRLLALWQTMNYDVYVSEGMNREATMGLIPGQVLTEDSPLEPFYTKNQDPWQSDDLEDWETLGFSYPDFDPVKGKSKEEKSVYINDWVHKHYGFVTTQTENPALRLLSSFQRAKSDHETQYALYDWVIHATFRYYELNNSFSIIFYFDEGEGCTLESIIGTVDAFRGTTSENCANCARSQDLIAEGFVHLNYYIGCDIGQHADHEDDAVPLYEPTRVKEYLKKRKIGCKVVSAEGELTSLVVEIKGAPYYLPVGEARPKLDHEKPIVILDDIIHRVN
Mushroom tyrosinase (Agaricus bisporus) (from UniProt O42713+Q00024+C7FF04+C7FF05), sequence (Q00024 whole entry, looked up): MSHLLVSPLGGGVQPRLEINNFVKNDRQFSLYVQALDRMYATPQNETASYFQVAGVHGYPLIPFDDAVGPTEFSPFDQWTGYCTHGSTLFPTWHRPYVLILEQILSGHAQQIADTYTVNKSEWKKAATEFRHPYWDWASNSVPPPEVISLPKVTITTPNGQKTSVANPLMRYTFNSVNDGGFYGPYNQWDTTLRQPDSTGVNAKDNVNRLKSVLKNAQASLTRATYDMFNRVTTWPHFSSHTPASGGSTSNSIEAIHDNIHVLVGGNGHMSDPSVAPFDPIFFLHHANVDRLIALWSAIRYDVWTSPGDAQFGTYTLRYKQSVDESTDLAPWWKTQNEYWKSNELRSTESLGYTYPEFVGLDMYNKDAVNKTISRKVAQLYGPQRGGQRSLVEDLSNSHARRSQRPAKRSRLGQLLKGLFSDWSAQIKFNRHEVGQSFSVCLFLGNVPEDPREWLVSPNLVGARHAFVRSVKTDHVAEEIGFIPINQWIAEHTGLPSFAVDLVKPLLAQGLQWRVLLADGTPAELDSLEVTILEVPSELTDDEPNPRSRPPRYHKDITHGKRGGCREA
Mushroom tyrosinase (Agaricus bisporus) (from UniProt O42713+Q00024+C7FF04+C7FF05), sequence (O42713 whole entry, looked up): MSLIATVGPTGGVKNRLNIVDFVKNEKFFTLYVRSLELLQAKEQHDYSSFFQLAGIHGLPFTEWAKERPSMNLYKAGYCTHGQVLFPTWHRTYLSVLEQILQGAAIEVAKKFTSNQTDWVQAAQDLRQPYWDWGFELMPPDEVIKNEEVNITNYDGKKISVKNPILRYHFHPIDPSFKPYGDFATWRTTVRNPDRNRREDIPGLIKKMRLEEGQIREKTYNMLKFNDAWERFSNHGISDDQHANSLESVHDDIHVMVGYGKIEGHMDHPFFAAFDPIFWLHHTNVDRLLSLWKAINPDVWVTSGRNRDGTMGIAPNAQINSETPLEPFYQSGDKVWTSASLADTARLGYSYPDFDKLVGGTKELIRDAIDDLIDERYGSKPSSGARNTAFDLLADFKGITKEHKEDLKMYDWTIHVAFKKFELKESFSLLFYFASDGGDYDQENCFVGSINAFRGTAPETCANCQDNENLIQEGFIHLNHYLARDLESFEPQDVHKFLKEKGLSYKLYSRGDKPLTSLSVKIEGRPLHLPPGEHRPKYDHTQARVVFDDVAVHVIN

Row | Compound | IC50 [1] [µM] | other results
1 | COC(=O)/C=C1\S/C(=N/N=C/c2ccc(C)o2)NC1=O | 49.82 | 
2 | COC(=O)/C=C1\SC(N/N=C/c2ccco2)=NC1=O | 75.26 | 
3 | COC(=O)/C=C1\S/C(=N/N=C/c2ccc(OCc3ccccc3)cc2)NC1=O | 141.77 | 
4 | COC(=O)/C=C1\S/C(=N/N=C/c2ccc[nH]2)NC1=O | 50.12 | 
5 | Mushroom tyrosinase (Agaricus bisporus) (from UniProt O42713+Q00024+C7FF04+C7FF05) |  | Vmax (10'-3deltaA/s) [4]: 1; Km [5]: 1000 µM; Vmax (10'-3deltaA/s) [6]: 3.33; Vmax (10'-4deltaA/s) [7]: 5.55

More lines, main results first:

Row | IC50 [1] [µM] | Compound | other results
6 | 3.17 | COC(=O)/C=C1\S/C(=N/N=C/c2ccncc2)NC1=O | Ki [2]: 1.5 µM; inhibition [3]: Active
7 | 100.45 | COC(=O)/C=C1\S/C(=N/N=C/c2ccc(N(C)C)cc2)NC1=O | 
8 | 208.25 | COC(=O)/C=C1\S/C(=N/N=C/C=C/c2ccccc2)NC1=O | 
9 | 348.93 | COC(=O)/C=C1\S/C(=N/N=C/c2ccc(Br)s2)NC1=O | 
10 | 297.6 | COC(=O)/C=C1\S/C(=N/N=C/c2ccc(OCc3ccc(OC)cc3)cc2)NC1=O | 
